13 compounds from paper PMC10442672, “Synthesis of amantadine clubbed N-aryl amino thiazoles as potent urease, α-amylase & α-glucosidase inhibitors, kinetic and molecular docking studies” (RSC Advances, 2023) can be followed below.

A word on the melting point: it is the temperature of the solid-liquid transition. The term IC50 denotes the concentration needed to halve the response being measured. For orientation: MIC means the least concentration at which growth counts as inhibited. Low readings indicate a more susceptible organism, high ones a less susceptible organism. For orientation: zone of inhibition means the size of the clear area around the sample on an inoculated plate. A lower zone of inhibition goes with little suppression of growth.

One data set addresses α-amylase. The data set is classed as biochemical. Particulars: starch substrate; pH 6.8; 30 minutes at 50 °C; triplicate. On the procedure: α-Amylase inhibition assay was performed to calculate the enzyme inhibition potential of newly synthesised compounds.[48] […] In blank 40 μl starch and 50 μl phosphate buffer was added. […] Then absorbance was measured at 540 nm using Elx800 microtiter plate reader.

Data set [1] is described as follows: DPPH assay (antioxidant potential). Particulars: DPPH 100 μM; 30 minutes at 37 °C; triplicate. As for the experimental part:
DPPH assay as reported earlier was used to determine the antioxidant potential of newly synthesised compound.[46] For experiment, […] (100 μM) solution was mixed with 5 μl of sample compounds and ascorbic acid (positive control) at concentration of 100, 50 and 25 μM in 96-well plate respectively. Plate was incubated in dark for 30 minutes at 37 °C and then absorbance was measured at 515 nm using Elx800 microtiter plate reader. The experiment was performed in triplicate and percentage scavenging was calculated as following:Percentage scavenging (%) = [1 − absorbance of sample/absorbance of control] × 100
On the technique in general: DPPH is a stable violet radical that fades when it is reduced.

In data set [2] the test system is Bacillus subtilis, Staphylococcus aureus, Escherichia coli and Pseudomonas aeruginosa. Nature of the data set: Antibacterial disc diffusion assay, all four tested strains. The data set is classed as cell-based. On the procedure: (§1) Anti-bactericidal activity of the compounds was determined by using disc diffusion method. […] The assay was performed in triplicate and Kanamycin was used as positive control. […] According to Yildiz et al.[39] the antibacterial activity of a substitution connected to a biologically active molecule may be increased.
(§2) Disc diffusion assay was used to determine the antibacterial potential of newly synthesised compounds as reported earlier.[45] For experiment, 1% inoculum of Bacillus subtilis, Staphylococcus aureus, Escherichia coli and Pseudomonas aeruginosa was transferred to autoclaved nutrient agar media (23 g l^−1) respectively. Then media were poured in respective plates and allowed to solidify. Samples (100 μM) and Kanamycin drug (10 μM) was loaded on sterile paper disc (5 mm) and these discs were placed on Petriplates at appropriate distance. Plates were incubated for 24 hours at 37 °C and zone of inhibition were measured using Vernier calliper.
For orientation: A growth-free zone around the sample is the usual read-out of agar diffusion tests.

Another data set concerns Bacillus subtilis. Nature of the data set: Antibacterial disc diffusion assay. The data set is classed as cell-based. Particulars: for MIC / zone of inhibition at 100 µM: Bacillus subtilis. As for the experimental part:
as §1, §2

The target of a further data set is urease (Canavalia ensiformis, UniProt P07374). Particulars: read-out: Urease IC50; 100 mM urea; pH 8.2; 37 °C; triplicate.
Chain of urease (P07374 whole entry, looked up, the tested form may be a part): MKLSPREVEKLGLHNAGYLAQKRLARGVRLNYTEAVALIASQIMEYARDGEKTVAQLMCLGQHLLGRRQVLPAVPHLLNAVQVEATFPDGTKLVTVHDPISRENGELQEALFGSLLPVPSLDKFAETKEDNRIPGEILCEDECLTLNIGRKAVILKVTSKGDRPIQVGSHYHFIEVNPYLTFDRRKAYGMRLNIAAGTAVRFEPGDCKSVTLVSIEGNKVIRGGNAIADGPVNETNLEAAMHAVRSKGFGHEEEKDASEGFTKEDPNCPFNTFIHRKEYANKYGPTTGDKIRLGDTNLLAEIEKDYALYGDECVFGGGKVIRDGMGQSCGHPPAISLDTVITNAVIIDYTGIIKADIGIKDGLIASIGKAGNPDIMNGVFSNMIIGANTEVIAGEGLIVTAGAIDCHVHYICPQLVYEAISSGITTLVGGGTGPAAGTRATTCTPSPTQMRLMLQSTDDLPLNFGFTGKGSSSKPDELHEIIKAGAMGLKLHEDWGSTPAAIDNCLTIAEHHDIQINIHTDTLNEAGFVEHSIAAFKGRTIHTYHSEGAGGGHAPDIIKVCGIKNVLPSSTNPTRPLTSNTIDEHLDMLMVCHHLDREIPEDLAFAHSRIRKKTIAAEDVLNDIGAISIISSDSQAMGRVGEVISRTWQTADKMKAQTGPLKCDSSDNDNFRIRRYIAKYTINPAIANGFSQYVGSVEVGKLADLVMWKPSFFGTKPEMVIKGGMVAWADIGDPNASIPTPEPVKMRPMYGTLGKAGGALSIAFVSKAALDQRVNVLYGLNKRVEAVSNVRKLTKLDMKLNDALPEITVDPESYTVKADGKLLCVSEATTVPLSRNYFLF
The next data set has as its system Pseudomonas aeruginosa. Nature of the data set: Antibacterial disc diffusion assay. The data set is classed as cell-based. As for the experimental part:
as §1, §2

The next data set relates to Escherichia coli. Nature of the data set: Antibacterial disc diffusion assay. The data set is classed as cell-based. On the procedure: as §1, §2
The test system of a further data set is Staphylococcus aureus. Nature of the data set: Antibacterial disc diffusion assay. The data set is classed as cell-based. On the procedure:
as §1, §2

Where [3] appears, read: disc diffusion, samples 100 μM, Kanamycin 10 μM on disc, 24 hours at 37 °C.

In brackets after ≈: the same amount, converted by molar mass. Several values for one entry are separate records, joined by “and”; a condition that tells them apart may be missing. Equal entries are not always repeated.

Turning to `Cc1nc(Nc2ccc(NS(C)(=O)=O)c(Oc3ccccc3)c2)sc1C(=O)NC12CC3CC(CC(C3)C1)C2` [Compound 6h, N-Adamantyl-4-methyl-2-((4-(methylsulfonamido)-3-phenoxyphenyl)amino) thiazole-5-carboxamide], the melting point lay in the range of 156 to 160 °C. Also, the IC50 at α-amylase was above 100 µM. Moreover, the IC50 in data set [1] was 64.1 ± 0.71 µM.

As for `Cc1nc(Nc2ccc([N+](=O)[O-])cc2)sc1C(=O)NC12CC3CC(CC(C3)C1)C2` [Compound 6b, N-(Adamantan-1-yl)-4-methyl-2-((4-nitrophenyl)amino)thiazole-5-carboxamide], the melting point is 300 to 303 °C. Further, the “antibacterial activity against tested bacterial strains” value (“antibacterial activity” below) in data set [2] was “no antibacterial activity”. The compound also registered an IC50 at α-amylase above 100 µM. Further, 108 ± 1.93 µM corresponded to half-maximal inhibition in data set [1] (IC50).

Regarding `COc1ccc(Nc2nc(C)c(C(=O)NC34CC5CC(CC(C5)C3)C4)s2)cc1` [Compound 6d, N-(Adamantan-1-yl)-4-methyl-2-((4-methoxyphenyl)amino)thiazole-5-carboxamide], the melting point is 226 to 229 °C. For the same compound, the “antibacterial activity” value in data set [2] is “no antibacterial activity”. In addition, the 50% inhibitory concentration (IC50) at α-amylase is 97.4 ± 1.53 µM. Also, the IC50 in data set [1] is 19.2 ± 0.37 µM.

The compound `Cc1nc(Nc2ccc(Br)cc2)sc1C(=O)NC12CC3CC(CC(C3)C1)C2` [Compound 6c, N-(Adamantan-1-yl)-4-methyl-2-((4-bromophenyl)amino)thiazole-5-carboxamide] came in with a melting point of 277 to 280 °C. Further, in data set [2], the “antibacterial activity” value is reported as “activity against one bacterial strain out of four”. The compound also returned an IC50 against α-amylase above 100 µM. In the data set with Bacillus subtilis, this compound registered an MIC of 75 µM (≈ 33.5 µg/mL). The zone of inhibition at 100 µM in the data set on Bacillus subtilis (setting [3]) worked out at 7 mm. The compound also showed an IC50 in data set [1] of 126 ± 2.66 µM.

Take `NC(N)=S` [Thiourea]: the IC50 at urease came to 1.33 µM.

Take `Cc1nc(Nc2cccc(Cl)c2)sc1C(=O)NC12CC3CC(CC(C3)C1)C2` [Compound 6f, N-(Adamantan-1-yl)-4-methyl-2-((3-chlorophenyl)amino)thiazole-5-carboxamide]: the melting point was in the range of 253 to 254 °C. In addition, the “antibacterial activity” value in [2] is given as “no antibacterial activity”. For the same compound, the IC50 on α-amylase is above 100 µM. The compound further registered an IC50 in [1] of 136.7 ± 1.33 µM.

Take `NC[C@H]1O[C@H](O[C@H]2[C@H](O)[C@@H](O[C@H]3O[C@H](CO)[C@@H](O)[C@H](N)[C@H]3O)[C@H](N)C[C@@H]2N)[C@H](O)[C@@H](O)[C@@H]1O` [Kanamycin, reference compound]: the “MIC Pseudomonas aeruginosa” value against Pseudomonas aeruginosa was “MIC = 20 μM”. Also, the “Antibacterial zone of inhibition Pseudomonas aeruginosa” value with Pseudomonas aeruginosa (setting [3]) is 22 mm. Moreover, the “MIC Bacillus subtilis” value in the data set with Bacillus subtilis is listed as “MIC = 25 μM”. Besides, the “Antibacterial zone of inhibition Bacillus subtilis” value with Bacillus subtilis (setting [3]) stood at 21 mm. Also, in the data set on Escherichia coli, the “MIC Escherichia coli” value is listed as “MIC = 25 μM”. Moreover, in the data set on Escherichia coli (setting [3]), the “Antibacterial zone of inhibition Escherichia coli” value was 20 mm. Moreover, the “MIC Staphylococcus aureus” value with Staphylococcus aureus is “MIC = 20 μM”. Moreover, the “Antibacterial zone of inhibition Staphylococcus aureus” value in the data set with Staphylococcus aureus (setting [3]) is reported as 24 mm.

Regarding `Cc1nc(Nc2ccccc2Cl)sc1C(=O)NC12CC3CC(CC(C3)C1)C2` [Compound 6g, N-(Adamantan-1-yl)-4-methyl-2-((2-chlorophenyl)amino)thiazole-5-carboxamide], the melting point lay in the range of 202 to 203 °C. The “antibacterial activity” value in data set [2] is reported as “activity against one bacterial strain out of four”. The compound further came in with an IC50 against α-amylase above 100 µM. The compound further had a minimum inhibitory concentration (MIC) in the data set on Bacillus subtilis of 75 µM (≈ 30.1 µg/mL). In addition, in the data set on Bacillus subtilis (setting [3]), the zone of inhibition at 100 µM worked out at 7 mm. In [1], this compound displayed an IC50 of 122 ± 6.54 µM.

Take `Cc1nc(Nc2cccc(F)c2)sc1C(=O)NC12CC3CC(CC(C3)C1)C2` [Compound 6i, N-Adamantyl-2-((3-fluorophenyl)amino)-4-methylthiazole-5-carboxamide]: the melting point lay within 220 to 225 °C. In addition, on α-amylase, the IC50 was above 100 µM. The midpoint of inhibition in data set [1], the IC50, lay at 131 ± 1.11 µM.

With `Cc1nc(N)sc1C(=O)NC12CC3CC(CC(C3)C1)C2` [Compound 6a, N-(Adamantan-1-yl)-2-amino-4-methylthiazole-5-carboxamide], the melting point fell in the range of 256 to 257 °C. For the same compound, in data set [2], the “antibacterial activity” value is “significant antibacterial activity”. The compound also returned an IC50 at α-amylase of 118.3 ± 0.71 µM. The same compound showed an MIC with Pseudomonas aeruginosa (Pseudomonas aeruginosa) of 50 µM (≈ 14.6 µg/mL). This compound also registered a zone of inhibition at 100 µM in the data set on Pseudomonas aeruginosa (Pseudomonas aeruginosa, disc diffusion, samples 100 μM, Kanamycin 10 μM on disc, 24 hours at 37 °C) of 10 mm. This compound showed an MIC against Bacillus subtilis of 50 µM (≈ 14.6 µg/mL). Besides, the zone of inhibition at 100 µM with Bacillus subtilis (setting [3]) is 13 mm. The compound also displayed an MIC with Escherichia coli (Escherichia coli) of 50 µM (≈ 14.6 µg/mL). In the data set with Escherichia coli (Escherichia coli, disc diffusion, samples 100 μM, Kanamycin 10 μM on disc, 24 hours at 37 °C), this compound showed a zone of inhibition at 100 µM of 11 mm. In the data set on Staphylococcus aureus (Staphylococcus aureus), this compound yielded a minimal inhibitory concentration (MIC) of 75 µM (≈ 21.9 µg/mL). For the same compound, the zone of inhibition at 100 µM in the data set on Staphylococcus aureus (Staphylococcus aureus, disc diffusion, samples 100 μM, Kanamycin 10 μM on disc, 24 hours at 37 °C) came out at 8 mm. Moreover, it took 157 ± 10.3 µM to reach half-maximal inhibition in data set [1] (IC50).

Compound `COc1ccccc1Nc1nc(C)c(C(=O)NC23CC4CC(CC(C4)C2)C3)s1` [Compound 6e, N-(Adamantan-1-yl)-4-methyl-2-((2-methoxyphenyl)amino)thiazole-5-carboxamide] registered a melting point of 210 to 212 °C. Moreover, the “antibacterial activity” value in data set [2] is “no antibacterial activity”. Moreover, on α-amylase, the IC50 is above 100 µM and the “α-Amylase IC50” value is “inactive”. Also, in data set [1], the half-maximal inhibitory concentration (IC50) worked out at 110.3 ± 0.76 µM.

Regarding `O=C1O[C@H]([C@@H](O)CO)C(O)=C1O` [Ascorbic acid, reference compound], in data set [1], the IC50 was 0.892 µM and 0.89 µM.

The compound `Cc1nc(NC23CC4CC(CC(C4)C2)C3)sc1C(=O)NC12CC3CC(CC(C3)C1)C2` [Compound 6j, N-Adamantanyl-2-(((3s,5s,7s)-adamantan-1-yl)amino)-4-methylthiazole-5-carboxamide] showed a melting point of 250 to 253 °C. The compound also showed an IC50 against α-amylase above 100 µM. Besides, the IC50 in data set [1] worked out at 137.9 ± 0.9 µM.
